For eleven compounds, IC50 results are on record in US9090583B2, “Benzopyrone estrogen receptor regulator” (BEIJING SHENOGEN PHARMA GROUP LTD., priority 2010, dated 2015).

Converted amounts (≈) assume the structure as drawn. Like-named read-outs stand apart in the source and are kept apart here. Bounds are passed on as bounds.

As usually defined, the IC50 is the point on the concentration scale where inhibition reaches its midpoint.

Assay [1] has as its system HL-60 cells. The experiment in a line: CellTiter-Glo Luminescent Cell Viability Assay on leukemia HL-60 cells. The format is cell-based, human. The conditions noted are these: Homo sapiens, 72 hours, read-out: Inhibition of the viability of leukemia cells, IC50. The method, then: B: In Vitro CellTiter-Glo® Luminescent Cell Viability Assay on Leukemia HL-60 Cells
The leukemia HL-60 cells were obtained from ATCC and maintained in IMDM and 10% fetal calf serum at 37° C., under 5% CO2 atmosphere. The cells were seeded on 96-well plate at a density of 6×10^3 cells per well. HL-60 cells were treated with a test compound dissolved in DMSO at the concentrations of zero, 0.3 μM, 0.5 μM, 1 μM, 2 μM, 3 μM, 5 μM, 10 μM, 20 μM, 30 μM, 50 μM and 100 μM for 72 hours. Treated cells were examined by CellTiter-Glo® Luminescent Cell Viability Assay Kit (Promega), and luminescence values were recorded with Envision.
(In general: ATP-based viability assays read luminescence as a measure of living cells.)

Assay [2] relates to Molt-4 cells. The assay is described as follows: CellTiter-Glo Luminescent Cell Viability Assay on leukemia Molt-4 cells. The format is cell-based. The conditions noted are these: Homo sapiens, 72 hours, read-out: Inhibition of the viability of leukemia cells, IC50. The method, then: C: In Vitro CellTiter-Glo® Luminescent Cell Viability Assay on Leukemia Molt-4 Cells
(§1) The leukemia Molt-4 cells were obtained from ATCC and maintained in RPMI-1640 and 10% fetal calf serum at 37° C., under 5% CO2 atmosphere. The cells were seeded on 96-well plate at a density of 6×10^3 cells per well. RPMI-1640 cells were treated with a test compound dissolved in DMSO at the concentrations of zero, 0.3 μM, 0.5 μM, 1 μM, 2 μM, 3 μM, 5 μM, 10 μM, 20 μM, 30 μM, 50 μM and 100 μM for 72 hours. Treated cells were examined by CellTiter-Glo® Luminescent Cell Viability Assay Kit (Promega), and luminescence values were recorded with Envision.

Assay [3] concerns HO8910 cells. The assay is described as follows: CellTiter-Glo Luminescent Cell Viability Assay on ovary cancer HO8910 cells. The format is cell-based. Conditions: HO-8910 cells; 72 hours; read-out: Inhibition of the viability of ovary cancer cells, IC50. The method, then:
A: In Vitro CellTiter-Glo® Luminescent Cell Viability Assay on Ovary Cancer HO8910 Cells
as §1, with “Ovary cancer HO8910 cells” for “The leukemia Molt-4 cells”, “from Type Culture Collection of the Chinese Academy of Sciences, Shanghai,” for “from ATCC”, “well. HO8910” for “well. RPMI-1640”

The subject of assay [4] is MCF7 cells. The assay is described as follows: CellTiter-Glo Luminescent Cell Viability Assay on ER-positive breast cancer MCF-7 cells. The format is cell-based, human. Conditions: average ± standard deviation when tested more than 3 times, read-out: Inhibition of the viability of breast cancer cells, IC50. A digest of the protocol:
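MCF7 cells (DMEM, 10% FCS, 37 °C) treated 72 h with compound at 0–100 μM (0.3, 0.5, 1, 2, 3, 5, 10, 20, 30, 50, 100 μM). Viability measured by CellTiter-Glo luminescence.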

Assay [5] concerns SK-OV3 cells. The assay is described as follows: CellTiter-Glo Luminescent Cell Viability Assay on ovary cancer SK-OV3 cells. The format is cell-based. Conditions: read-out: Inhibition of the viability of ovary cancer cells, IC50. The method, then:
C: In Vitro CellTiter-Glo® Luminescent Cell Viability Assay on Ovary Cancer SK-OV3 Cells
as §1, with “The ovary cancer SK-OV3” for “The leukemia Molt-4”, “from Cancer hospital, Chinese Academy of Medical Sciences” for “from ATCC”, “well. SK-OV3” for “well. RPMI-1640”

The test system of assay [6] is MDA-MB-231 cells. The experiment in a line: CellTiter-Glo Luminescent Cell Viability Assay on ER-negative breast cancer MDA-MB-231 cells. The format is cell-based. The conditions noted are these: average ± standard deviation when tested more than 3 times, read-out: Inhibition of the viability of breast cancer cells, IC50. Summed up:
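Cells seeded at 6×10^3 per well in DMEM with 10% FCS and exposed 72 h to compound at 0 to 100 μM (twelve concentrations, DMSO vehicle). Viability measured by CellTiter-Glo luminescence.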

The test system of assay [7] is CoC1 cells. The experiment in a line: CellTiter-Glo Luminescent Cell Viability Assay on ovary cancer CoC1 cells. The format is cell-based. Conditions: 72 hours, read-out: Inhibition of the viability of ovary cancer cells, IC50. The method, then: B: In Vitro CellTiter-Glo® Luminescent Cell Viability Assay on Ovary Cancer CoC1 Cells
The ovary cancer CoC1 cells were obtained from Cancer hospital, Chinese Academy of Medical Sciences and maintained in RPMI-1640 and 10% fetal calf serum at 37° C., under 5% CO2 atmosphere. The cells were seeded on 96-well plate at a density of 6×10^3 cells per well. CoC1 cells were treated with a test compound dissolved in DMSO at the concentrations of zero, 0.3 μM, 0.5 μM, 1 μM, 2 μM, 3 μM, 5 μM, 10 μM, 30 μM, 50 μM and 100 μM for 72 hours. Treated cells were examined by CellTiter-Glo® Luminescent Cell Viability Assay Kit (Promega), and luminescence values were recorded with Envision.

Assay [8] deals with K562 cells. The experiment in a line: CellTiter-Glo Luminescent Cell Viability Assay on leukemia K562 cells. The format is cell-based, human. The conditions noted are these: Homo sapiens, 72 hours, read-out: Inhibition of the viability of leukemia cells, IC50. The method, then:
A: In Vitro CellTiter-Glo® Luminescent Cell Viability Assay on Leukemia K562 Cells
The leukemia K562 cells were obtained from ATCC and maintained in IMDM and 10% fetal calf serum at 37° C., under 5% CO2 atmosphere. The cells were seeded on 96-well plate at a density of 6×10^3 cells per well. K562 cells were treated with a test compound dissolved in DMSO at the concentrations of zero, 0.3 μM, 0.5 μM, 1 μM, 2 μM, 3 μM, 5 μM, 10 μM, 20 μM, 30 μM, 50 μM and 100 μM for 72 hours. Treated cells were examined by CellTiter-Glo® Luminescent Cell Viability Assay Kit (Promega), and luminescence values were recorded with Envision.

Assay [9] concerns Hep3B2.1-7 cells. The assay is described as follows: MTT assay, in vitro growth of liver cancer Hep3B2.1-7 cells. The format is cell-based. The conditions noted are these: 72 hours, read-out: Inhibition on liver cancer cells, IC50. The method, then: The liver cancer Hep3B2.1-7 cells were obtained from ATCC. Cells were incubated in 1640 culture medium with 5% fetal calf serum and 100 U/ml double-antibody in a cell incubator at 37° C., 5% CO2 atmosphere and passaged via conventional methods. The sample was dissolved in DMSO, formulated into 50 mg/ml stocking solution, and stored at 4° C. The test solutions at 50, 25, 12.5 and 6.25 μg/ml were formulated with culture medium immediately before use.
The adherent cells were digested with cell digestive solution, and then the exfoliated cells were collected and counted. The cell suspension was formulated with 1640 culture medium containing 5% fetal calf serum (5.0×10^4/ml). The cell suspension was seeded on 96-well plate with 100 μl/well, and maintained in a cell incubator at 37° C., 5% CO2 atmosphere for 24 hours. After that, the compounds at various concentrations were added, where solvent was taken as negative control and Taxol as positive control. 10 μl MTT (5 mg/ml) was added after 72 hours. The supernatant was removed after cultivation for 3 hours more, 150 μl DMSO was added and the formazan was dissolved on shaking. OD values were measured at 570 nm after homogeneous mixing, and inhibition rate and IC50 values were calculated based on the mean of OD values from 3 wells.
A general note: Formazan colour is commonly taken as a measure of viable cells.

Where [10] appears, read: Homo sapiens, SK-OV-3, 72 hours.

Take `COc1c(-c2cc(F)cc(F)c2)oc2c(CC=C(C)C)c(O)c(CC=C(C)C)c(O)c2c1=O` [Compound 2, 2-(3,5-difluorophenyl)-5,7-dihydroxy-3-methoxy-6,8-di(3-methyl-2-buten-1-yl)-4H-benzopyran-4-one]: the IC50 in [1] was over 100 µM; in assay [2] it was over 100 µM; in [3] it was 15.7 µM; in assay [4] (Homo sapiens, MCF7, 72 h), 6.51 ± 1.42 µM; in [5] (setting [10]), 7.22 µM; in [6] (Homo sapiens, MDA-MB-231, 72 h), 11.3 ± 1.38 µM. Further, the IC50 in assay [7] was 5.19 µM; in [8], over 100 µM.

Consider `COc1c(-c2ccc(F)c(F)c2)oc2c(CC=C(C)C)c(O)c(CC=C(C)C)c(O)c2c1=O` [Compound 4, 2-(3,4-difluorophenyl)-5,7-dihydroxy-3-methoxy-6,8-di(3-methyl-2-buten-1-yl)-4H-benzopyran-4-one], for which the IC50 in [1] stood at 10.1 µM; in assay [2], 10.3 µM; in assay [3], 14 µM; in [4] (Homo sapiens, MCF7, 72 h), 4.95 ± 0.65 µM; in assay [5] (setting [10]), 6.42 µM; in assay [9], 1.38 µg/mL (≈ 3.02 µM). Also, the IC50 in assay [6] (Homo sapiens, MDA-MB-231, 72 h) was 6.37 ± 0.03 µM; in [8], 8.65 µM.

In the case of `COc1c(-c2ccc(F)cc2)oc2c(CC=C(C)C)c(O)c(CC=C(C)C)c(O)c2c1=O` [Compound 7, 2-(4-fluorophenyl)-5,7-dihydroxy-3-methoxy-6,8-di(3-methyl-2-buten-1-yl)-4H-benzopyran-4-one], the IC50 was 21.6 µM in [3]; 12.6 ± 0.68 µM in [4] (Homo sapiens, MCF7, 72 h); over 100 µM in [5] (setting [10]); 1.09 µg/mL (≈ 2.49 µM) in [9]; 10.9 ± 2.22 µM in [6] (Homo sapiens, MDA-MB-231, 72 h); over 100 µM in assay [7].

On to `COc1ccc(-c2oc3c(CC=C(C)C)c(O)c(CC=C(C)C)c(O)c3c(=O)c2OC)cn1` [Compound 26, 2-(6-methoxypyridin-3-yl)-5,7-dihydroxy-3-methoxy-6,8-di(3-methyl-2-buten-1-yl)-4H-benzopyran-4-one], for which the half-inhibitory concentration (IC50) in assay [3] turned out to be 24.3 µM; in [4] (Homo sapiens, MCF7, 72 h) it was 11 ± 1.34 µM; in [5] (setting [10]) it was 40.1 µM; in assay [6] (Homo sapiens, MDA-MB-231, 72 h) it was 12.8 ± 1.78 µM; in assay [7], 17.8 µM.

Turning to `COc1cc(-c2oc3c(CC=C(C)C)c(O)c(CC=C(C)C)c(O)c3c(=O)c2OC)ccn1` [Compound 27, 2-(2-methoxypyridin-4-yl)-5,7-dihydroxy-3-methoxy-6,8-di(3-methyl-2-buten-1-yl)-4H-benzopyran-4-one], the IC50 was found to be 17.6 µM in [3]; 6.17 ± 0.05 µM in assay [4] (Homo sapiens, MCF7, 72 h); 7.23 µM in assay [5] (setting [10]); 10.3 ± 0.56 µM in [6] (Homo sapiens, MDA-MB-231, 72 h); 9.23 µM in assay [7].

As to `COc1c(-c2ccc(O)c(C(F)(F)F)c2)oc2c(CC=C(C)C)c(O)c(CC=C(C)C)c(O)c2c1=O` [Compound 77, 2-(3-trifluoromethyl-4-hydroxyphenyl)-5,7-dihydroxy-3-methoxy-6,8-di(3-methyl-2-buten-1-yl)-4H-benzopyran-4-one], the concentration for half-maximal inhibition (IC50) is over 100 µM in [4] (Homo sapiens, MCF7, 72 h); 3.08 µg/mL (≈ 6.11 µM) in [9]; 15.4 µM in assay [6] (Homo sapiens, MDA-MB-231, 72 h).

`COc1c(-c2ccc(F)c(O)c2)oc2c(CC=C(C)C)c(O)c(CC=C(C)C)c(O)c2c1=O` [Compound 78, 2-(3-hydroxy-4-fluorophenyl)-5,7-dihydroxy-3-methoxy-6,8-di(3-methyl-2-buten-1-yl)-4H-benzopyran-4-one]: the IC50 was found to be 5.46 µM in [4] (Homo sapiens, MCF7, 72 h); 8.95 µg/mL (≈ 19.7 µM) in assay [9]; 5.36 µM in assay [6] (Homo sapiens, MDA-MB-231, 72 h).

With `COc1c(-c2ccc(O)c(F)c2)oc2c(CC=C(C)C)c(O)c(CC=C(C)C)c(O)c2c1=O` [Compound 79, 2-(3-fluoro-4-hydroxyphenyl)-5,7-dihydroxy-3-methoxy-6,8-di(3-methyl-2-buten-1-yl)-4H-benzopyran-4-one], the IC50 in [4] (Homo sapiens, MCF7, 72 h) is 5.33 µM; in assay [9], 8.23 µg/mL (≈ 18.1 µM); in assay [6] (Homo sapiens, MDA-MB-231, 72 h) it was 3.64 µM.

Take `COc1c(-c2ccc(F)c(F)c2)oc2c(CC=C(C)C)c(O)c(CC=C(C)C)c(OC)c2c1=O` [Compound 83, 2-(3,4-difluorophenyl)-7-hydroxy-3,5-dimethoxy-6,8-di(3-methyl-2-buten-1-yl)-4H-benzopyran-4-one]: the IC50 in [1] was over 100 µM; in assay [2], over 100 µM; in assay [4] (Homo sapiens, MCF7, 72 h) it was 10.6 ± 3.06 µM; in assay [6] (Homo sapiens, MDA-MB-231, 72 h) it was 11.3 ± 0.86 µM; in assay [8], over 100 µM.

For `COc1c(-c2ccc(Cl)c(F)c2)oc2c(CC=C(C)C)c(O)c(CC=C(C)C)c(OC)c2c1=O` [Compound 84, 2-(3-fluoro-4-chlorophenyl)-7-hydroxy-3,5-dimethoxy-6,8-di(3-methyl-2-buten-1-yl)-4H-benzopyran-4-one], the IC50 in assay [3] came out at 23.4 µM; in assay [4] (Homo sapiens, MCF7, 72 h), 6.89 µM; in assay [5] (setting [10]) it was 15.7 µM; in [6] (Homo sapiens, MDA-MB-231, 72 h) it was 13.5 µM; in assay [7], 23.4 µM.

With `COc1ccc(-c2cc(=O)c3c(O)c(CC=C(C)C)c(O)c(CC=C(C)C)c3o2)cc1Cl` [Compound 90, 2-(3-chloro-4-trimethoxyphenyl)-5,7-dihydroxy-6,8-di(3-methyl-2butylene-1-yl)-4H-benzopyran-4-one], the IC50 is over 100 µM in assay [3]; 8.98 µM in [4] (72 hours); over 100 µM in [5] (72 hours); 10.7 ± 1.38 µM in assay [6] (72 hours); over 100 µM in assay [7].
